Patent US6864253B2, “Benzo[4,5]thieno[2,3-c]pyridine and Benzo[4,5]furo[2,3-c]pyridine Derivatives Useful as Inhibitors of Phosphodiesterase” (Orth-McNeil Pharmaceutical, Inc., priority 2000, dated 2005)
“And” between values parts separate entries of the source, which are not always exact repeats. Equal values may be shown once. Read-outs that look alike come from different tables or passages of the source.

What was measured:
PDEV [1] = molecular target: T1, PDEV (Oryctolagus cuniculus, UniProt G1SX67); assay: In vitro determination of Ki for phosphodiesterase inhibitors (IC50/Ki, 30 nM 3H-cGMP); format: biochemical; details: printed in the % INH column as Ki value
Protocol: The assay was adapted to a 96-well format. Phosphodiesterase was assayed in 5 mM MgCl2, 15 mM Tris HCl (pH 7.4), 0.5 mg/ml bovine serum albumin, 30 nM ^3H-cGMP and test compound at various concentrations. […] For all measurements, the test compound was dissolved and diluted in 100% DMSO (2% DMSO in assay). The total volume of the assay was 100 μl. The reaction mixture was incubated at 30° C. for 90 minutes. The reaction was stopped by boiling for 1 minute and then immediately cooled by transfer to an ice bath. To each well was then added 25 μl 1 mg/ml snake venom (Ophiophagus hannah) and the reaction mixture incubating at 30° C. for 10 minute. The reaction was stopped by the addition of 1 ml Bio-Rad AG1-X2 resin slurry (1:3). An aliquot of 200 μl was taken and counted by liquid scintillation.
The % inhibition of the maximum substrate conversion (by the enzyme in the absence of inhibitor) was calculated for each test compound concentration. Using GraphPad Prism′s nonlinear regression analysis (sigmoidal dose response), the % inhibition vs log of the test compound concentration was plotted to determine the IC50. Under conditions where substrate concentration <<Km of the enzyme (Km=substrate concentration at which half of the maximal velocity of the enzyme is achieved), Ki is equivalent to the IC50 value. […]

PDEV [2] = molecular target: T2, PDEV (Homo sapiens, UniProt O76074); assay: Cyclic nucleotide phosphodiesterase (PDE) assay, inhibition of PDEV isolated from human tissue; format: biochemical; details: footnote a: tested using human tissue; for IC50: PDEV
T2 construct: rabbit or human tissues were homogenized in an ice-cold buffer solution; from tissue; host or cells: human tissue
Protocol: PDEV was isolated from rabbit and human tissues according to the protocol described by Boolell et al. (Boolell, M., Allen, M. J., Ballard, S. A., Ge[o-Attee, S., Muirhead, G. J., Naylor, A. M., Osterloh, I. H., and Gingell, C) in International Journal of Impotence Research 1996 8, 47-52 with minor modifications.
Briefly, rabbit or human tissues were homogenized in an ice-cold buffer solution containing 20 mM HEPES (pH 7.2), 0.25M sucrose, 1 mM EDTA, and 1 mM phenylmethylsulphonyl fluoride (PMSF). The homogenates were centrifuged at 100,000 g for 60 minutes at 4° C. The supernatant was filtered through […] filter and loaded on a Pharmacia Mono Q anion exchange column (1 ml bed volume) that was equilibrated with 20 mM HEPES, 1 mM EDTA and 0.5 mM PMSF. After washing out unbound proteins, the enzymes were eluted with a linear gradient of 100-600 mM NaCl in the same buffer (35 to 50 ml total, depending on the tissue. Enzymes from the skeletal muscle, corpus cavernosum, retina, heart and platelet were eluted with 35, 40, 45, 50, and 50 ml respectively.) The column was run at a flow rate of 1 ml/min and 1 ml fractions were collected. The fractions comprising various PDE activities were pooled separately and used in later studies.
The PDE assay was carried out as described by Thompson and Appleman in Biochemistry 1971 10, 311-316 with minor modifications, as noted below.
(§1) The assays were adapted to a 96-well format. The enzyme was assayed in 5 mM MgCl2, 15 mM Tris HCl (pH 7.4), 0.5 mg/ml bovine serum albumin, 1 μM cGMP or cAMP, 0.1 μCi [^3H]-cGMP or [^3H]-cAMP, and 2-10 μl of column elution. The total volume of the assay was 100 μl. The reaction mixture was incubated at 30° C. for 30 minutes. The reaction was stopped by boiling for 1 minute and then cooled down on ice. The resulting [^3H] 5′-mononucleotides were further converted to uncharged [^3H]-nucleosides by adding 25 μl 1 mg/ml snake venom (Ophiophagus hannah) and incubating at 30° C. for 10 minute. The reaction was stopped by the addition of 1 ml Bio-Rad AG1-X2 resin slurry (1:3). All the charged nucleotides were bound by the resin and only the uncharged [^3H]-nucleosides remained in the supernatant after centrifuging. An aliquot of 200 μl was taken and counted by liquid scintillation. PDE activity was expressed as pmol cyclic nucleotide hydrolyzed/min/ml of enzyme preparation.
Inhibitor studies were carried out in assay buffer with a final concentration of 10% DMSO. Under these conditions, the hydrolysis of product increased with time and enzyme concentration in a linear fashion.

PDEV [3] = molecular target: T1, PDEV; assay: Cyclic nucleotide phosphodiesterase (PDE) assay, inhibition of PDEV isolated from rabbit tissue; format: biochemical; details: 10 μM test compound, rabbit PDEV
Protocol: Briefly, rabbit or human tissues were homogenized in an ice-cold buffer solution containing 20 mM HEPES (pH 7.2), 0.25M sucrose, 1 mM EDTA, and 1 mM phenylmethylsulphonyl fluoride (PMSF). The homogenates were centrifuged at 100,000 g for 60 minutes at 4° C. The supernatant was filtered through […] filter and loaded on a Pharmacia Mono Q anion exchange column (1 ml bed volume) that was equilibrated with 20 mM HEPES, 1 mM EDTA and 0.5 mM PMSF. […] The fractions comprising various PDE activities were pooled separately and used in later studies.
as §1
Inhibitor studies were carried out in assay buffer with a final concentration of 10% DMSO.

erectile dysfunction = details: cited from earlier work

**Q.** For c1ccc(-c2ccc(N3CCc4c([nH]c5ccccc45)C3c3ccc4c(c3)CCO4)nc2)nc1 (stereo not drawn) [Cmpd 191, 2-[2,3′]Bipyridinyl-6′-yl-1-(2,3-dihydro-benzofuran-5-yl)-2,3,4,9-tetrahydro-1H-β-carboline], which Ki (PDEV [1]) is on record?
**A.** The Ki was 0.69 nM.

**Q.** With COc1ccc(-c2cnc(N3CC(=O)c4c([nH]c5ccccc45)C3c3ccc4c(c3)OCO4)nc2)cc1 (stereo not shown) [Cmpd 162] as the compound, how does the IC50 (PDEV [2]) read?
**A.** Its IC50 is 24 nM.

**Q.** With COc1ccc(-c2cnc(N3CCc4c([nH]c5ccccc45)C3c3ccc4c(c3)OCO4)nc2)cc1OC (stereo not drawn) [Cmpd 7, 1-(3,4-Methylenedioxyphenyl)-2-[5-(3,4-dimethoxyphenyl)pyrimidin-2-yl]-2,3,4,9-tetrahydro-1H-β-carboline] as the compound, how does the inhibition at 10 µM (PDEV [3]; read-out: % Inh @ 10 μM (rabbit)) read?
**A.** The inhibition at 10 µM was 91%.

**Q.** What about the melting point of the same compound?
**A.** The melting point was 173 to 175 °C.

**Q.** With COc1ccc(-c2cnc(N3CCc4c([nH]c5ccccc45)C3c3ccc4c(c3)CCO4)nc2)cc1 (stereo not shown) [Cmpd 174] as the compound, how does the IC50 (PDEV [2]) read?
**A.** Its IC50 is 150 nM.

**Q.** For c1ccc(-c2cnc(N3CCc4c([nH]c5ccccc45)C3c3ccc4c(c3)OCO4)nc2)nc1 (stereo not shown) [Cmpd 183], which IC50 (PDEV [2]) is on record?
**A.** Its IC50 is 122 nM.

**Q.** With COc1ccc(-c2cnc(N3CC(=O)c4c([nH]c5ccccc45)C3c3ccc4c(c3)OCO4)nc2)cc1OC (stereo not shown) [Cmpd 157] as the compound, how does the IC50 (PDEV [2]) read?
**A.** The IC50 was 8.7 nM.

**Q.** Which Ki (PDEV [1]) does the source give for Cc1ncc(-c2cnc(N3CCc4c([nH]c5ccccc45)C3c3ccc4c(c3)CCO4)nc2)n1C (stereo not drawn) [Cmpd 190, 1-(2,3-Dihydro-benzofuran-5-yl)-2-[5-(2,3-dimethyl-3H-imidazol-4-yl)-pyrimidin-2-yl]-2,3,4,9-tetrahydro-1H-β-carboline] here?
**A.** Its Ki is 14.2 nM.

**Q.** Which “% INH @ 10 μM” value (PDEV [2]; 10 μM test compound) does the source give for c1ccc2[nH]c(N3CCc4c([nH]c5ccccc45)C3c3ccc4c(c3)OCO4)nc2c1 (stereo not shown) [Cmpd 172] here?
**A.** The value was 44^a %.

**Q.** Which IC50 (PDEV [2]) does the source give for COc1ccc(-c2cnc(N3CCc4c([nH]c5ccccc45)C3c3ccc4c(c3)OCCO4)nc2)cc1 (stereo not shown) [Cmpd 184] here?
**A.** The IC50 was 640 nM.

**Q.** What does the source list for CCCc1nn(C)c2c(=O)[nH]c(-c3cc(S(=O)(=O)N4CCN(C)CC4)ccc3OCC)nc12 [sildenafil, 5-[2-ethoxy-5-(4-methylpiperazin-1-ylsulphonyl)phenyl]-1-methyl-3-n-propyl-6,7-dihydro-1H-pyrazolo[4,3-d]pyrimidin-7-one]?
**A.** improved sexual function, share of men (erectile dysfunction; men who suffer from ED of psychogenic or organic etiology): about 70%; improved erections, share of patients (erectile dysfunction; patients who had undergone a radical prostatectomy, 15% on placebo): 43%

**Q.** For O=C(c1ccc(-c2cccc(C(F)(F)F)c2)o1)N1CCc2c(n(Cc3ccccn3)c3ccccc23)C1c1ccc2c(c1)OCO2 (stereo not shown) [Cmpd 26], which “% Inh @ 10 μM (rabbit)” value (PDEV [3]) is on record?
**A.** The value was 88%.

**Q.** For c1cnc(N2CCc3c([nH]c4ccccc34)C2c2ccc3c(c2)OCO3)nc1 (stereo not shown) [Cmpd 168], which IC50 (PDEV [2]) is on record?
**A.** The IC50 was 2150 nM.

**Q.** For O=S(=O)(c1ccccc1)c1ccsc1S(=O)(=O)N1CCc2c([nH]c3ccccc23)C1c1ccc2c(c1)OCO2 (stereo not shown) [Cmpd 146], which “% Inh @ 10 μM (rabbit)” value (PDEV [3]) is on record?
**A.** The value was 35%.

**Q.** For c1ccc2c3c([nH]c2c1)C(c1ccc2c(c1)CCO2)N(c1ncc(-c2ccc(OCCN4CCCC4)cc2)cn1)CC3 (stereo not shown) [Cmpd 178], which “% INH @ 10 μM (rabbit)” value (PDEV [3]) is on record?
**A.** The value was 37%.

**Q.** For c1ccc(-c2cnc(N3CCc4c([nH]c5ccccc45)C3c3ccc4c(c3)OCO4)nc2)nc1 (stereo not shown) [Cmpd 153], which inhibition at 10 µM (PDEV [3]; read-out: % INH @ 10 μM (rabbit)) is on record?
**A.** The inhibition at 10 µM was 95%.

**Q.** For O=C(c1ccc(-c2ccc(Cl)cc2[N+](=O)[O-])o1)N1CCc2c([nH]c3ccccc23)C1c1ccc2c(c1)OCO2 (stereo not shown) [Cmpd 66], which “% Inh @ 10 μM (rabbit)” value (PDEV [3]; 10 µM) is on record?
**A.** The value was 23%.

**Q.** Which “% Inh @ 10 μM (rabbit)” value (PDEV [3]) does the source give for O=C(c1ccc(-c2cccc([N+](=O)[O-])c2)o1)N1CCc2c(sc3ccccc23)C1c1ccc2c(c1)OCO2 (stereo not shown) [Cmpd 76] here?
**A.** The value was 27%.

**Q.** For O=C(c1cnn(-c2ccc(Cl)cc2)c1C(F)(F)F)N1CCc2c([nH]c3ccccc23)C1c1ccc2c(c1)OCO2 (stereo not shown) [Cmpd 124], which “% Inh @ 10 μM (rabbit)” value (PDEV [3]) is on record?
**A.** Its value is 53%.

**Q.** Which “% Inh @ 10 μM (rabbit)” value (PDEV [3]) does the source give for O=C(c1ccc(-c2cccc(C(F)(F)F)c2)o1)N1CCc2c([nH]c3ccccc23)C1c1ccncc1 (stereo not shown) [Cmpd 87] here?
**A.** Its value is 34%.

**Q.** For Cc1onc(-c2ccccc2)c1C(=O)N1CCc2c([nH]c3ccccc23)C1c1ccc([N+](=O)[O-])cc1 (racemic) [Cmpd 118], which “% Inh @ 10 μM (rabbit)” value (PDEV [3]) is on record?
**A.** The value was 28%.

**Q.** Which “% Inh @ 10 μM (rabbit)” value (PDEV [3]) does the source give for Cc1onc(-c2ccccc2)c1C(=O)N1CCc2c([nH]c3ccccc23)C1c1ccc(C#N)cc1 (racemic) [Cmpd 115] here?
**A.** The value was 30%.

**Q.** Which “% Inh @ 10 μM (rabbit)” value (PDEV [3]) does the source give for CN(C)CCn1c2c(c3ccccc31)CCN(C(=O)c1ccc(-c3cc(C(F)(F)F)ccc3Cl)o1)C2c1ccc2c(c1)OCO2 (stereo not shown) [Cmpd 43] here?
**A.** The value was 22%.

**Q.** For Nc1cccc(-c2ccc(C(=O)N3CCc4c([nH]c5ccccc45)C3c3ccc4c(c3)OCO4)o2)c1 (stereo not shown) [Cmpd 59], which “% Inh @ 10 μM (rabbit)” value (PDEV [3]) is on record?
**A.** The value was 92%.

**Q.** For O=C(O)C1Cc2c([nH]c3ccccc23)C(c2ccc3c(c2)OCO3)N1C(=O)c1ccc(-c2cccc(C(F)(F)F)c2)o1 (stereo not shown) [Cmpd 70], which “% Inh @ 10 μM (rabbit)” value (PDEV [3]) is on record?
**A.** Its value is 46%.

**Q.** For CN(C)CCn1c2c(c3ccccc31)CCN(c1ncc(-c3ccc(Cl)cc3)cn1)C2c1ccc2c(c1)OCO2 (stereo not shown) [Cmpd 4], which “% Inh @ 10 μM (rabbit)” value (PDEV [3]) is on record?
**A.** Its value is 94%.

**Q.** For CN(C)CCn1c2c(c3ccccc31)CCN(C(=O)c1ccc(C(C)(C)C)o1)C2c1ccc2c(c1)OCO2 (stereo not shown) [Cmpd 36], which “% Inh @ 10 μM (rabbit)” value (PDEV [3]) is on record?
**A.** Its value is 97%.

**Q.** For COc1ccc(-c2cnc(N3CCc4c([nH]c5ccccc45)C3c3ccc4c(c3)OCO4)nc2)cc1 (stereo not shown) [Cmpd 9], which “% Inh @ 10 μM (rabbit)” value (PDEV [3]) is on record?
**A.** The value was 80%.

**Q.** For COC(=O)c1ccc(C2c3[nH]c4ccccc4c3CCN2C(=O)c2cnn(-c3ccccc3)c2C(F)(F)F)cc1 (stereo not shown) [Cmpd 129], which “% Inh @ 10 μM (rabbit)” value (PDEV [3]) is on record?
**A.** The value was 46%.

**Q.** For CCN(CC)CCn1c2c(c3ccccc31)CCN(C(=O)c1ccc(-c3cccc(C(F)(F)F)c3)o1)C2c1ccc2c(c1)OCO2 (stereo not shown) [Cmpd 33], which “% Inh @ 10 μM (rabbit)” value (PDEV [3]; 10 µM) is on record?
**A.** The value was 88% and 63%.
